For the first test, the target named is Human complement C1s enzyme (Homo sapiens (Human), UniProt P09871). The test can be described thus: Human C1s enzyme assay. The format is biochemical. The settings on record: Human C1s enzyme assay of Example 3; read-out: IC50 (Stars). How it is done:
Human complement C1s enzyme (purified from human serum, Complement Technology, Inc.) at 1.16 nM final concentration was incubated with test compound at various concentrations for 5 min at room temperature in 50 mM Tris, 1 M NaCl, pH 7.5. A synthetic substrate Z-L-Lys-SBzl and DTNB (Ellman's reagent) were added to final concentrations of 100 μM each. Absorbance at 405 nm (A405) was recorded at 30 second intervals for 30 min using a microplate spectrophotometer. IC50 values were calculated by nonlinear regression of complement C1s reaction rates as a function of test compound concentration.
Sequence of Human complement C1s enzyme (P09871 438-688 limits assumed): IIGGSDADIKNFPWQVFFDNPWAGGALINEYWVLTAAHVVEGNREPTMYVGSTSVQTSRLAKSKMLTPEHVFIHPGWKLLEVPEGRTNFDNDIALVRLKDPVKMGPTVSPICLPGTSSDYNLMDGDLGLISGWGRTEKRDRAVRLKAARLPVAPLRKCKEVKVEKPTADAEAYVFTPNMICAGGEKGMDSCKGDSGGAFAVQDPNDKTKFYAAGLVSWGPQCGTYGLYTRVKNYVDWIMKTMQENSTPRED
Sequence of Human complement C1s enzyme (P09871 16-437 partner limits assumed): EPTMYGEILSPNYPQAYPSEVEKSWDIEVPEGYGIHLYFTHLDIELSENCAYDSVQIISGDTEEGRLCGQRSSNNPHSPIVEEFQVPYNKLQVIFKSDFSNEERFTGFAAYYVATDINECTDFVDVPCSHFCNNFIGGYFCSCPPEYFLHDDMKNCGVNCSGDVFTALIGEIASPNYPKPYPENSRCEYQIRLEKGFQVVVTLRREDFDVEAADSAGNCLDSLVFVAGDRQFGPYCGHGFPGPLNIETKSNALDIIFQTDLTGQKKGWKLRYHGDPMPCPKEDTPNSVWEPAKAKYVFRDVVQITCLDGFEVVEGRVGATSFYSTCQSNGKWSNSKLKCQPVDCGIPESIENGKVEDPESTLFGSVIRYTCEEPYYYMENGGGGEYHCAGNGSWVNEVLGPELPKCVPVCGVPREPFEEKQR
For the compound `COC[C@@H]1C[C@@H](C(=O)N[C@H](C)c2cc(C(=N)N)cs2)N(C(=O)CNC(=O)c2ccc(Oc3ccc(F)cc3)cc2)C1` (relative stereo) [Compound 79, (2S,4R*)—N—((R)-1-(4-carbamimidoylthiophen-2-yl)ethyl)-1-((4-(4-fluorophenoxy)benzoyl)glycyl)-4-(methoxymethyl)pyrrolidine-2-carboxamide], the IC50 was < 100 nM.
`COC[C@H]1C[C@@H](C(=O)N[C@H](C)c2cc(C(=N)N)cs2)N(C(=O)CNC(=O)c2ccc(Oc3ccc(F)cc3)cc2)C1` (relative stereo) [Compound 80, (2S,4S*)—N—((R)-1-(4-carbamimidoylthiophen-2-yl)ethyl)-1-((4-(4-fluorophenoxy)benzoyl)glycyl)-4-(methoxymethyl)pyrrolidine-2-carboxamide]: the IC50 is < 100 nM.
On to `COC[C@H]1C[C@@H](C(=O)N[C@H](C)c2cc(C(=N)N)cs2)N(C(=O)CNC(=O)c2ccc3c(c2)-c2ccccc2C3(F)F)C1` (relative stereo) [Compound 117, (2S,4S*)—N—((R)-1-(4-carbamimidoylthiophen-2-yl)ethyl)-1-((9,9-difluoro-9H-fluorene-3-carbonyl)glycyl)-4-(methoxymethyl)pyrrolidine-2-carboxamide], for which the IC50 is < 100 nM.
The same measure, in the same setting: to `COC[C@@H]1C[C@@H](C(=O)N[C@H](C)c2cc(C(=N)N)cs2)N(C(=O)CNC(=O)c2ccc3c(c2)-c2ccccc2C3(F)F)C1` (relative stereo) [Compound 118, (2S,4R*)—N—((R)-1-(4-carbamimidoylthiophen-2-yl)ethyl)-1-((9,9-difluoro-9H-fluorene-3-carbonyl)glycyl)-4-(methoxymethyl)pyrrolidine-2-carboxamide] belongs < 100 nM.
Still for that read-out and setting: the value for `C[C@@H](NC(=O)[C@@H]1C[C@@H](C2OCCCO2)CN1C(=O)CNC(=O)c1ccc(Oc2ccc(F)cc2)cc1)c1cc(C(=N)N)cs1` (relative stereo) [Compound 160, (2S,4R*)—N—((R)-1-(4-carbamimidoylthiophen-2-yl)ethyl)-4-(1,3-dioxan-2-yl)-1-((4-(4-fluorophenoxy)benzoyl)glycyl)pyrrolidine-2-carboxamide] was < 100 nM; that for `C[C@@H](NC(=O)[C@@H]1C[C@H](C2OCCCO2)CN1C(=O)CNC(=O)c1ccc(Oc2ccc(F)cc2)cc1)c1cc(C(=N)N)cs1` (relative stereo) [Compound 161, (2S,4S*)—N—((R)-1-(4-carbamimidoylthiophen-2-yl)ethyl)-4-(1,3-dioxan-2-yl)-1-((4-(4-fluorophenoxy)benzoyl)glycyl)pyrrolidine-2-carboxamide] was < 100 nM.
Same read-out and setting: to `CC(NC(=O)[C@@H]1C[C@@H](Oc2ccccc2)CN1C(=O)CNC(=O)c1ccc2c(c1)-c1ccccc1C2(F)F)c1cc(C(=N)N)cs1` (stereo in doubt) [Compound 51, (2S,4R)—N—((S)-1-(4-carbamimidoylthiophen-2-yl)ethyl)-1-((9,9-difluoro-9H-fluorene-3-carbonyl)glycyl)-4-phenoxypyrrolidine-2-carboxamide] belongs < 100 nM; to `CC(NC(=O)[C@@H]1CC2(CN1C(=O)CNC(=O)c1ccc(-c3ccc(Cl)cn3)cc1)OCCO2)c1cc(C(=N)N)cs1` (stereo in doubt) [Compound 151, (S)—N—((S)-1-(4-carbamimidoylthiophen-2-yl)ethyl)-7-((4-(5-chloropyridin-2-yl)benzoyl)glycyl)-1,4-dioxa-7-azaspiro[4.4]nonane-8-carboxamide], < 100 nM; to `CC(NC(=O)[C@@H]1CC2(CN1C(=O)CNC(=O)c1ccc(-c3ccccc3)cn1)OCCO2)c1cc(C(=N)N)cs1` (stereo in doubt) [Compound 167, (S)—N—((S)-1-(4-carbamimidoylthiophen-2-yl)ethyl)-7-((5-phenylpicolinoyl)glycyl)-1,4-dioxa-7-azaspiro[4.4]nonane-8-carboxamide], < 100 nM.
Take `C[C@@]12C[C@@H]1N(C(=O)CNC(=O)c1ccc3c(c1)CCCO3)[C@H](C(=O)NCc1cc(C(=N)N)cs1)C2` [Compound 1, (1S,3S,5S)—N-((4-carbamimidoylthiophen-2-yl)methyl)-2-((chromane-6-carbonyl)glycyl)-5-methyl-2-azabicyclo[3.1.0]hexane-3-carboxamide]: the IC50 was < 100 nM.

The test is the same for the next values; noted with them: Human complement C1s enzyme 1.16 nM, substrate Z-L-Lys-SBzl 100 μM, assay of Example 3; read-out: IC50 (Stars).
Regarding `COC[C@H]1C[C@@H](C(=O)N[C@H](C)c2cc(C(=N)N)cs2)N(C(=O)CNC(=O)c2ccc3oc4ccccc4c3c2)C1` (relative stereo) [Compound 219, (2S,4S*)—N—((R)-1-(4-carbamimidoylthiophen-2-yl)ethyl)-1-((dibenzo[b,d]furan-2-carbonyl)glycyl)-4-(methoxymethyl)pyrrolidine-2-carboxamide], the IC50 is < 100 nM.
Regarding `N=C(N)c1csc([C@@H](NC(=O)[C@@H]2CC3(CN2C(=O)CNC(=O)c2ccc4c(c2)-c2ccccc2C4(F)F)OCCO3)C(F)(F)F)c1` (relative stereo) [Compound 275, (S)—N—((S*)-1-(4-carbamimidoylthiophen-2-yl)-2,2,2-trifluoroethyl)-7-((9,9-difluoro-9H-fluorene-3-carbonyl)glycyl)-1,4-dioxa-7-azaspiro[4.4]nonane-8-carboxamide], the IC50 is < 100 nM.
With `COC[C@@H]1C[C@@H](C(=O)N[C@H](C)c2cc(C(=N)N)cs2)N(C(=O)CNC(=O)c2ccc3oc4ccccc4c3c2)C1` (relative stereo) [Compound 295, (2S,4R*)—N—((R)-1-(4-carbamimidoylthiophen-2-yl)ethyl)-1-((dibenzo[b,d]furan-2-carbonyl)glycyl)-4-(methoxymethyl)pyrrolidine-2-carboxamide], the IC50 was < 100 nM.
Still for that read-out and setting: the value for `C[C@@H](NC(=O)[C@@H]1C[C@@H](CO)CN1C(=O)CNC(=O)c1ccc2c(c1)-c1ccccc1C2(F)F)c1cc(C(=N)N)cs1` (relative stereo) [Compound 305, (2S,4R*)—N—((R)-1-(4-carbamimidoylthiophen-2-yl)ethyl)-1-((9,9-difluoro-9H-fluorene-3-carbonyl)glycyl)-4-(hydroxymethyl)pyrrolidine-2-carboxamide] was < 100 nM.
With `C[C@@H](NC(=O)[C@@H]1C[C@H](CO)CN1C(=O)CNC(=O)c1ccc2c(c1)-c1ccccc1C2(F)F)c1cc(C(=N)N)cs1` (relative stereo) [Compound 306, (2S,4S*)—N—((R)-1-(4-carbamimidoylthiophen-2-yl)ethyl)-1-((9,9-difluoro-9H-fluorene-3-carbonyl)glycyl)-4-(hydroxymethyl)pyrrolidine-2-carboxamide], the IC50 is < 100 nM.
The same measure, in the same setting: to `N=C(N)c1csc([C@H](NC(=O)[C@@H]2CC3(CN2C(=O)CNC(=O)c2ccc4c(c2)-c2ccccc2C4(F)F)OCCO3)C(F)(F)F)c1` (single isomer, unassigned) [Compound 246, (S)—N—((R*)-1-(4-carbamimidoylthiophen-2-yl)-2,2,2-trifluoroethyl)-7-((9,9-difluoro-9H-fluorene-3-carbonyl)glycyl)-1,4-dioxa-7-azaspiro[4.4]nonane-8-carboxamide] belongs < 100 nM.

As usually defined, the IC50 is the concentration at which inhibition is half-maximal.
